For assay [1], the target named is T1, human recombinant histamine H2 receptor (Homo sapiens, UniProt P25021).
T1 construct: expressed in transfected cells; host or cells: CHO-K1 cells
Nature of the assay: Histamine H2 radioligand binding ([125I]Aminopotentidine). The following applies: percent inhibition of specific binding; screened at 1 μM; read-out: Inhibition of ligand binding, Hist. H2. In short, it runs like this:
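This radioligand binding assay measured displacement of [125I]Aminopotentidine from recombinant human histamine H2 receptors. Compounds were dissolved in 1% DMSO vehicle. Specific binding was calculated by subtracting non-specific binding, defined using 3 μM Tiotidine, and activity was reported as percentage inhibition of that specific binding.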

Assay [2] deals with T2, human recombinant adrenergic α2A receptor (Homo sapiens, UniProt P08913).
T2 construct: expressed in transfected cells; host or cells: insect Sf9 cells
T2 sequence (P08913 1-465): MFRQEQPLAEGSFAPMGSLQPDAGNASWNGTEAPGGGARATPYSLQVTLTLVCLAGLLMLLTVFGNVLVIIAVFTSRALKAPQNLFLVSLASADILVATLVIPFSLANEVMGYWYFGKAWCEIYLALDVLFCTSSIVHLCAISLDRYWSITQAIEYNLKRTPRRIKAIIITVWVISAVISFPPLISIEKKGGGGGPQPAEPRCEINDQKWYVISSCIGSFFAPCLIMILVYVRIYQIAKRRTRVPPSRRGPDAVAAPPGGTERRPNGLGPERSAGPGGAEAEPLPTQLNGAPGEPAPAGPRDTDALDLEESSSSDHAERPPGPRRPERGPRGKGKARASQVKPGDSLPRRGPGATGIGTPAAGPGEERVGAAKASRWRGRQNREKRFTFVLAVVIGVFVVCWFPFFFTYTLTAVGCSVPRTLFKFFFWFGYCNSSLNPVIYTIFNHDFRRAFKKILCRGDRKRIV
Nature of the assay: Adrenergic α2A radioligand binding ([3H]MK-912). On the set-up: Inhibition of ligand binding, Adren. alpha2A: concentration or dose not given beside the values. The following applies: percent inhibition of specific binding. As to the method: To evaluate in radioligand binding assays the activity of compounds of the invention, human recombinant adrenergic α2A receptor expressed in insect Sf9 cells (Uhlen S et al. J Pharmacol Exp Ther. 271:1558, 1994) in a modified Tris-HCl buffer (50 mM Tris-HCl, pH 7.4, 12.5 mM MgCl2, 2 mM EDTA) was used. Compounds of invention were incubated with 1 nM [^3H]MK-912 for 60 minutes at 25° C. MK912 is (2S-trans)-1,3,4,5′,6,6′,7,12b-octahydro-1′,3′-dimethyl-spiro[2H-benzofuro[2,3-a]quinolizine-2,4′(1′H)-pyrimidin]-2′(3′H)-one hydrochloride Non-specific binding was estimated in the presence of 10 μM WB-4101 (2-(2,6-Dimethoxyphenoxyethyl)aminomethyl-1,4-benzodioxane hydrochloride). Receptor proteins were filtered and washed, the filters were then counted to determine [^3H]MK-912 specifically bound. […] Biochemical assay results are presented as the percent inhibition of specific binding in Table 6.

Assay [3] concerns the target T3, human recombinant dopamine D2L receptor (Homo sapiens, UniProt P14416).
T3 construct: expressed in transfected cells; host or cells: CHO cells
Kind of assay: Dopamine D2L radioligand binding ([3H]Spiperone). Conditions: percent inhibition of specific binding. As for the experimental part: Non-specific binding was estimated in the presence of 10 μM Haloperidol. Receptor proteins were filtered and washed, the filters were then counted to determine [^3H]Spiperone specifically bound. […] Biochemical assay results are presented as the percent inhibition of specific binding in Table 6.

Assay [4] concerns the target T4, human recombinant serotonin (5-Hydroxytryptamine) 5-HT2A receptor (Homo sapiens, UniProt P28223).
T4 construct: expressed in transfected cells; host or cells: CHO-K1 cells
Kind of assay: Serotonin 5-HT2A radioligand binding ([3H]Ketanserin). Conditions: percent inhibition of specific binding. As to the method:
Compounds of the invention were incubated with 0.5 nM [^3H]Ketanserin for 60 minutes at 25° C. Non-specific binding was estimated in the presence of 1 μM Mianserin. Receptor proteins were filtered and washed, the filters were then counted to determine [^3H]Ketanserin specifically bound. […] Biochemical assay results are presented as the percent inhibition of specific binding in Table 6.

In assay [5] the target is T5, human recombinant serotonin (5-Hydroxytryptamine) 5-HT2C receptor (Homo sapiens, UniProt P28335).
T5 construct: expressed in transfected cells; host or cells: CHO-K1 cells
T5 sequence (P28335 33-458): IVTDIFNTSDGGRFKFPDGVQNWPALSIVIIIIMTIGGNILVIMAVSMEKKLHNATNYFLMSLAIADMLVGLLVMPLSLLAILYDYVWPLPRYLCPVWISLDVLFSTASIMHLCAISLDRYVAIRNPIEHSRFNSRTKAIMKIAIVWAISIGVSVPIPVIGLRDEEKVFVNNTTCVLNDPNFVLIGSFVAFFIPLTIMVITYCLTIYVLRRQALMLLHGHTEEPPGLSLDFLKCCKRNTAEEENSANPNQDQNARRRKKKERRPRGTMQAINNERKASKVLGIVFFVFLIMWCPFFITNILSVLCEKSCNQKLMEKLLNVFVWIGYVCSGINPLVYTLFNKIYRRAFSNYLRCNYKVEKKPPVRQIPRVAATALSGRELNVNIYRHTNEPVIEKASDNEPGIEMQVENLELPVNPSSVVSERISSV
Nature of the assay: Serotonin 5-HT2C radioligand binding ([3H]Mesulergine). On the set-up: Inhibition of ligand binding, Ser. 5-HT2C: concentration or dose not given beside the values. The following applies: percent inhibition of specific binding. As to the method:
Compounds of the invention were incubated with 1 nM [^3H]Mesulergine for 60 minutes at 25° C. Non-specific binding was estimated in the presence of 1 μM Mianserin. Receptor proteins were filtered and washed, the filters were then counted to determine [^3H]Mesulergine specifically bound. […] Biochemical assay results are presented as the percent inhibition of specific binding in Table 6.

The target in assay [6] is T6, human recombinant serotonin (5-Hydroxytryptamine) 5-HT6 receptor (Homo sapiens, UniProt P50406).
T6 construct: expressed in transfected cells; host or cells: human HeLa cells
T6 sequence (P50406 whole entry): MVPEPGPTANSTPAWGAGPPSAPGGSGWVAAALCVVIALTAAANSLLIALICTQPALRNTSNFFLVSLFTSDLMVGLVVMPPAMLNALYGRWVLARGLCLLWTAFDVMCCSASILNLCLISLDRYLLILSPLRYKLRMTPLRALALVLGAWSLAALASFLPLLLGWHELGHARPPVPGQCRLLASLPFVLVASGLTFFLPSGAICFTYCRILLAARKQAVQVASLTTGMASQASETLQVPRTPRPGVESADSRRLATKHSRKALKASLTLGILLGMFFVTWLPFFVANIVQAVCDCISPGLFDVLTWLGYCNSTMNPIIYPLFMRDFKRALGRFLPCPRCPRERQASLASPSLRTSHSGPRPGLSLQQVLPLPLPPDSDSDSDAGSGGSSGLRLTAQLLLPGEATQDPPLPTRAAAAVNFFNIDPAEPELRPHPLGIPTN
Kind of assay: Serotonin 5-HT6 radioligand binding ([3H]LSD). Conditions: percent inhibition of specific binding. On the set-up: Inhibition of ligand binding, Ser. 5-HT6: concentration or dose not given beside the values. The text has this:
Receptor proteins were filtered and washed, the filters were then counted to determine [3H]LSD specifically bound. […] Biochemical assay results are presented as the percent inhibition of specific binding in Table 6.

T3 sequence (P14416 whole entry): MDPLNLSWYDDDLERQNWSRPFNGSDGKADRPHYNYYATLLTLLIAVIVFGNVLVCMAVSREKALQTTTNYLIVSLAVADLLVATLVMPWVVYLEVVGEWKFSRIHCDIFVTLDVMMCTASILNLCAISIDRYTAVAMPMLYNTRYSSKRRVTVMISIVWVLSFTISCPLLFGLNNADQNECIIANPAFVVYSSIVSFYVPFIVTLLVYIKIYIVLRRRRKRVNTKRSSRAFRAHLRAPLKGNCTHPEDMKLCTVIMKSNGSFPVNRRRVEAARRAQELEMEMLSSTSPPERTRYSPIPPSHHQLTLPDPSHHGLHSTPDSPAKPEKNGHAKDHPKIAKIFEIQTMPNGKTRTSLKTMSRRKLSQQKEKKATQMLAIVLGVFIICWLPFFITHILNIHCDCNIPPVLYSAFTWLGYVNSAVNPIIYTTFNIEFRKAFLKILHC
T1 sequence (P25021 whole entry): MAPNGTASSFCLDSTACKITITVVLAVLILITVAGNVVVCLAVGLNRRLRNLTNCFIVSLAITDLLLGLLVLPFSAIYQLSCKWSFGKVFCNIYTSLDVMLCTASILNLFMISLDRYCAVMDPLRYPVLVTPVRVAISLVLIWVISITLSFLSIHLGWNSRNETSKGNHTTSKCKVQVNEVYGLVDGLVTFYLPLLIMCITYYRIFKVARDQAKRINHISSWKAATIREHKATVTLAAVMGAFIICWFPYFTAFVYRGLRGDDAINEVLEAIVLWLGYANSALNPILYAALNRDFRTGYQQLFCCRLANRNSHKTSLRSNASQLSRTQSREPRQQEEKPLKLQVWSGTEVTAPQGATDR
T4 sequence (P28223 whole entry): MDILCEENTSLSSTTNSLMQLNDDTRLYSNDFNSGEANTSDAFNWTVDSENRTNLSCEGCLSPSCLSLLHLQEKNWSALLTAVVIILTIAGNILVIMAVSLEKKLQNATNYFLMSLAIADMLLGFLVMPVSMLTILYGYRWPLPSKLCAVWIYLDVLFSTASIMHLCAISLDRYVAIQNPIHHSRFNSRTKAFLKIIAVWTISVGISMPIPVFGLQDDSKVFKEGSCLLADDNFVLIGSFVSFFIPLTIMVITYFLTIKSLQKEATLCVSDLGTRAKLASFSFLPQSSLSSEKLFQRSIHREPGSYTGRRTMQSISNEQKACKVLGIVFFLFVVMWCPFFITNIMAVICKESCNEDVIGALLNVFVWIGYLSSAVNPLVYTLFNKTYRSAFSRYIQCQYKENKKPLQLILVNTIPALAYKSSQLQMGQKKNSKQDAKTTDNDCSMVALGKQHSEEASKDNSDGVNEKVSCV

Consider `CN1CCc2c(c3cc(Cl)ccc3n2CCCc2ccc(C(F)(F)F)nc2)C1` [Compound 324, 8-chloro-5-(3-(6-(trifluoromethyl)pyridin-3-yl)propyl)-2,3,4,5-tetrahydro-2-methyl-1H-pyrido[4,3-b]indole], for which the inhibition at 1 µM in assay [1] came out at 63%. In assay [2], the “Inhibition of ligand binding, Adren. alpha2A” value (“Inhibition … Adren. alpha2A” below) amounted to 60%. In assay [3], the “Inhibition of ligand binding, Dop. D2L” value was 28%. Further, in assay [4], the “Inhibition of ligand binding, Ser. 5-HT2A” value (shortened to “Inhibition … Ser. 5-HT2A”) is 86%. In assay [5], the “Inhibition of ligand binding, Ser. 5-HT2C” value (from here on “Inhibition … Ser. 5-HT2C”) amounted to 57%. Also, the “Inhibition of ligand binding, Ser. 5-HT6” value in assay [6] came to 93%.

As for `CC1CCN(C(=O)CCn2c3c(c4cc(Cl)ccc42)CN(C)CC3)CC1` [Compound 325, 3-(8-chloro-1,2,3,4-tetrahydro-2-methylpyrido[4,3-b]indol-5-yl)-1-(4-methylpiperidin-1-yl)propan-1-one], the inhibition at 1 µM in assay [1] is 22%. The “Inhibition … Adren. alpha2A” value in assay [2] turned out to be 58%. Besides, in assay [3], the “Inhibition of ligand binding, Dop. D2L” value is −3%. In assay [4], the “Inhibition … Ser. 5-HT2A” value is given as 53%. Further, in assay [5], the “Inhibition … Ser. 5-HT2C” value turned out to be 50%. Moreover, the “Inhibition of ligand binding, Ser. 5-HT6” value in assay [6] was 41%.

Take `CN1CCc2c(c3cc(Cl)ccc3n2CCC(=O)N2CCCCC2)C1` [Compound 326, 3-(8-chloro-1,2,3,4-tetrahydro-2-methylpyrido[4,3-b]indol-5-yl)-1-(piperidin-1-yl)propan-1-one]: the inhibition at 1 µM in assay [1] came to 12%. For the same compound, the “Inhibition … Adren. alpha2A” value in assay [2] is 55%. For the same compound, the “Inhibition of ligand binding, Dop. D2L” value in assay [3] was −5%. In assay [4], the “Inhibition … Ser. 5-HT2A” value was 27%. Besides, the “Inhibition … Ser. 5-HT2C” value in assay [5] was determined as 31%. Moreover, the “Inhibition of ligand binding, Ser. 5-HT6” value in assay [6] was determined as 26%.

Consider `CN1CCc2c(c3cc(Cl)ccc3n2CCC(=O)N2CCOCC2)C1` [Compound 328, 3-(8-chloro-1,2,3,4-tetrahydro-2-methylpyrido[4,3-b]indol-5-yl)-1-morpholinopropan-1-one], for which the inhibition at 1 µM in assay [1] stood at 4%. For the same compound, the “Inhibition … Adren. alpha2A” value in assay [2] was found to be 45%. In addition, in assay [3], the “Inhibition of ligand binding, Dop. D2L” value turned out to be 6%. In assay [4], the “Inhibition … Ser. 5-HT2A” value came out at 46%. Also, the “Inhibition … Ser. 5-HT2C” value in assay [5] is given as 29%. Moreover, the “Inhibition of ligand binding, Ser. 5-HT6” value in assay [6] worked out at 29%.

Turning to `Cc1ccc2c(c1)c1c(n2CC(=O)N2CCOCC2)CCN(C)C1` [Compound 330, 2-(1,2,3,4-tetrahydro-2,8-dimethylpyrido[4,3-b]indol-5-yl)-1-morpholinoethanone], the inhibition at 1 µM in assay [1] turned out to be 6%. Further, the “Inhibition … Adren. alpha2A” value in assay [2] came out at 1%. Moreover, the “Inhibition of ligand binding, Dop. D2L” value in assay [3] is −8%. Besides, the “Inhibition … Ser. 5-HT2A” value in assay [4] is 14%. The “Inhibition … Ser. 5-HT2C” value in assay [5] was 17%. Moreover, the “Inhibition of ligand binding, Ser. 5-HT6” value in assay [6] is 19%.

Turning to `Cc1ccc2c(c1)c1c(n2CCCc2ccc(C(F)(F)F)nc2)CCN(C)C1` [Compound 331, 5-(3-(6-(trifluoromethyl)pyridin-3-yl)propyl)-2,3,4,5-tetrahydro-2,8-dimethyl-1H-pyrido[4,3-b]indole], the inhibition at 1 µM in assay [1] was 73%. Also, the “Inhibition … Adren. alpha2A” value in assay [2] worked out at 50%. Moreover, the “Inhibition of ligand binding, Dop. D2L” value in assay [3] was 20%. Moreover, the “Inhibition … Ser. 5-HT2A” value in assay [4] was determined as 93%. Further, the “Inhibition … Ser. 5-HT2C” value in assay [5] is 72%. Moreover, in assay [6], the “Inhibition of ligand binding, Ser. 5-HT6” value turned out to be 100%.

Turning to `CCOc1ccc(CCn2c3c(c4cc(C)ccc42)CN(C)CC3)cc1` [Compound 334, 5-[2-(4-Ethoxy-phenyl)-ethyl]-2,8-dimethyl-2,3,4,5-tetrahydro-1H-pyrido[4,3-b]indole], the inhibition at 1 µM in assay [1] stood at 91%. The “Inhibition … Adren. alpha2A” value in assay [2] amounted to 101%. The “Inhibition of ligand binding, Dop. D2L” value in assay [3] turned out to be 76%. Besides, the “Inhibition … Ser. 5-HT2A” value in assay [4] worked out at 101%. In addition, the “Inhibition … Ser. 5-HT2C” value in assay [5] is recorded as 97%. Also, the “Inhibition of ligand binding, Ser. 5-HT6” value in assay [6] is given as 101%.

As to `Cc1ccc2c(c1)c1c(n2CCc2ccc(OC(C)(C)C)cc2)CCN(C)C1` [Compound 335, 5-(4-tert-butoxyphenethyl)-2,3,4,5-tetrahydro-2,8-dimethyl-1H-pyrido[4,3-b]indole], in assay [1], the inhibition at 1 µM was 77%. Moreover, in assay [2], the “Inhibition … Adren. alpha2A” value is on record as 31%. Also, the “Inhibition of ligand binding, Dop. D2L” value in assay [3] stood at 44%. In addition, in assay [4], the “Inhibition … Ser. 5-HT2A” value is recorded as 97%. The “Inhibition … Ser. 5-HT2C” value in assay [5] is 72%. Further, the “Inhibition of ligand binding, Ser. 5-HT6” value in assay [6] worked out at 9%.

In the case of `COc1ccc(CCn2c3c(c4cc(Cl)ccc42)CN(C)CC3)cc1` [Compound 336, 8-Chloro-5-[2-(4-methoxy-phenyl)-ethyl]-2-methyl-2,3,4,5-tetrahydro-1H pyrido[4,3-b]indole], the inhibition at 1 µM in assay [1] stood at 101%. The “Inhibition … Adren. alpha2A” value in assay [2] was determined as 96%. In assay [3], the “Inhibition of ligand binding, Dop. D2L” value is 82%. The “Inhibition … Ser. 5-HT2A” value in assay [4] is recorded as 96%. Also, the “Inhibition … Ser. 5-HT2C” value in assay [5] stood at 99%. Moreover, the “Inhibition of ligand binding, Ser. 5-HT6” value in assay [6] was 104%.

In the case of `COc1ccc(CCn2c3c(c4cc(Cl)ccc42)CN(C)CC3)cc1F` [Compound 337, 5-(3-fluoro-4-methoxyphenethyl)-8-chloro-2,3,4,5-tetrahydro-2-methyl-1H-pyrido[4,3-b]indole], in assay [1], the inhibition at 1 µM worked out at 92%. Also, the “Inhibition … Adren. alpha2A” value in assay [2] was determined as 97%. Further, the “Inhibition of ligand binding, Dop. D2L” value in assay [3] is 81%. Moreover, in assay [4], the “Inhibition … Ser. 5-HT2A” value was found to be 101%. Besides, the “Inhibition … Ser. 5-HT2C” value in assay [5] stood at 94%. Also, the “Inhibition of ligand binding, Ser. 5-HT6” value in assay [6] is 104%.

Source of the values: patent US9096591B2, “Tetracyclic compounds” (Medivation Technologies, Inc., priority 2007, dated 2015).
